Assay results taken from ChEMBL document CHEMBL5303573, “Mapping human microbiome drug metabolism by gut bacteria and their genes” (Nature, 2019).

Experiment: The drug is tested on Alistipes indistinctus strain: DSM22520 for biotransformation. The drug concentrations were measured before and after a 12-h incubation by liquid-chromatography-coupled mass spectrometry (LC–MS)
Conditions: 2 µM

| SMILES | Bacterial Biotransformation |
| --- | --- |
| COc1ccccc1OCCNCC(O)COc1cccc2[nH]c3ccccc3c12 (stereo not given) [CARVEDILOL] | Compound metabolized |
| CCOc1ccc2nc(S(N)(=O)=O)sc2c1 [ETHOXZOLAMIDE] | Compound metabolized |
| CCOC(=O)[C@H](CCc1ccccc1)N[C@H]1CCc2ccccc2N(CC(=O)O)C1=O [BENAZEPRIL] | Compound NOT metabolized |

Experiment: The drug is tested on Bacteroides coprophilus strain: DSM18228 for biotransformation. The drug concentrations were measured before and after a 12-h incubation by liquid-chromatography-coupled mass spectrometry (LC–MS)
Conditions: 2 µM

| SMILES | Bacterial Biotransformation |
| --- | --- |
| COc1ccccc1OCCNCC(O)COc1cccc2[nH]c3ccccc3c12 (stereo not given) [CARVEDILOL] | Compound metabolized |
| CCOc1ccc2nc(S(N)(=O)=O)sc2c1 [ETHOXZOLAMIDE] | Compound metabolized |
| CCOC(=O)[C@H](CCc1ccccc1)N[C@H]1CCc2ccccc2N(CC(=O)O)C1=O [BENAZEPRIL] | Compound metabolized |

Experiment: The drug is tested on Bacteroides dorei strain: DSM17855 for biotransformation. The drug concentrations were measured before and after a 12-h incubation by liquid-chromatography-coupled mass spectrometry (LC–MS)
Conditions: phocaeicola dorei, 2 µM

| SMILES | Bacterial Biotransformation |
| --- | --- |
| COc1ccccc1OCCNCC(O)COc1cccc2[nH]c3ccccc3c12 (stereo not given) [CARVEDILOL] | Compound metabolized |
| CCOc1ccc2nc(S(N)(=O)=O)sc2c1 [ETHOXZOLAMIDE] | Compound NOT metabolized |
| CCOC(=O)[C@H](CCc1ccccc1)N[C@H]1CCc2ccccc2N(CC(=O)O)C1=O [BENAZEPRIL] | Compound metabolized |

Experiment: The drug is tested on Bacteroides ovatus strain: ATCC8483 for biotransformation. The drug concentrations were measured before and after a 12-h incubation by liquid-chromatography-coupled mass spectrometry (LC–MS)
Conditions: 2 µM

| SMILES | Bacterial Biotransformation |
| --- | --- |
| COc1ccccc1OCCNCC(O)COc1cccc2[nH]c3ccccc3c12 (stereo not given) [CARVEDILOL] | Compound metabolized |
| CCOc1ccc2nc(S(N)(=O)=O)sc2c1 [ETHOXZOLAMIDE] | Compound metabolized |
| CCOC(=O)[C@H](CCc1ccccc1)N[C@H]1CCc2ccccc2N(CC(=O)O)C1=O [BENAZEPRIL] | Compound metabolized |

Experiment: The drug is tested on Bacteroides pectinophilus strain: ATCC43243 for biotransformation. The drug concentrations were measured before and after a 12-h incubation by liquid-chromatography-coupled mass spectrometry (LC–MS)
Conditions: 2 µM

| SMILES | Bacterial Biotransformation |
| --- | --- |
| COc1ccccc1OCCNCC(O)COc1cccc2[nH]c3ccccc3c12 (stereo not given) [CARVEDILOL] | Compound NOT metabolized |
| CCOc1ccc2nc(S(N)(=O)=O)sc2c1 [ETHOXZOLAMIDE] | Compound metabolized |
| CCOC(=O)[C@H](CCc1ccccc1)N[C@H]1CCc2ccccc2N(CC(=O)O)C1=O [BENAZEPRIL] | Compound NOT metabolized |

Experiment: The drug is tested on Bacteroides uniformis strain: ATCC8492 for biotransformation. The drug concentrations were measured before and after a 12-h incubation by liquid-chromatography-coupled mass spectrometry (LC–MS)
Conditions: 2 µM

| SMILES | Bacterial Biotransformation |
| --- | --- |
| COc1ccccc1OCCNCC(O)COc1cccc2[nH]c3ccccc3c12 (stereo not given) [CARVEDILOL] | Compound metabolized |
| CCOc1ccc2nc(S(N)(=O)=O)sc2c1 [ETHOXZOLAMIDE] | Compound metabolized |
| CCOC(=O)[C@H](CCc1ccccc1)N[C@H]1CCc2ccccc2N(CC(=O)O)C1=O [BENAZEPRIL] | Compound metabolized |

Experiment: The drug is tested on Parabacteroides merdae strain: ATCC43184 for biotransformation. The drug concentrations were measured before and after a 12-h incubation by liquid-chromatography-coupled mass spectrometry (LC–MS)
Conditions: 2 µM

| SMILES | Bacterial Biotransformation |
| --- | --- |
| COc1ccccc1OCCNCC(O)COc1cccc2[nH]c3ccccc3c12 (stereo not given) [CARVEDILOL] | Compound metabolized |
| CCOc1ccc2nc(S(N)(=O)=O)sc2c1 [ETHOXZOLAMIDE] | Compound metabolized |
| CCOC(=O)[C@H](CCc1ccccc1)N[C@H]1CCc2ccccc2N(CC(=O)O)C1=O [BENAZEPRIL] | Compound metabolized |

Experiment: The drug is tested on Anaerococcus hydrogenalis strain: DSM7454 for biotransformation. The drug concentrations were measured before and after a 12-h incubation by liquid-chromatography-coupled mass spectrometry (LC–MS)
Conditions: 2 µM

| SMILES | Bacterial Biotransformation |
| --- | --- |
| COc1ccccc1OCCNCC(O)COc1cccc2[nH]c3ccccc3c12 (stereo not given) [CARVEDILOL] | Compound metabolized |
| CCOc1ccc2nc(S(N)(=O)=O)sc2c1 [ETHOXZOLAMIDE] | Compound metabolized |
| CCOC(=O)[C@H](CCc1ccccc1)N[C@H]1CCc2ccccc2N(CC(=O)O)C1=O [BENAZEPRIL] | Compound NOT metabolized |

Experiment: The drug is tested on Anaerotruncus colihominis strain: DSM17241 for biotransformation. The drug concentrations were measured before and after a 12-h incubation by liquid-chromatography-coupled mass spectrometry (LC–MS)
Conditions: 2 µM

| SMILES | Bacterial Biotransformation |
| --- | --- |
| COc1ccccc1OCCNCC(O)COc1cccc2[nH]c3ccccc3c12 (stereo not given) [CARVEDILOL] | Compound metabolized |
| CCOc1ccc2nc(S(N)(=O)=O)sc2c1 [ETHOXZOLAMIDE] | Compound metabolized |
| CCOC(=O)[C@H](CCc1ccccc1)N[C@H]1CCc2ccccc2N(CC(=O)O)C1=O [BENAZEPRIL] | Compound NOT metabolized |

Experiment: The drug is tested on Clostridium ramosum strain: DSM1402 for biotransformation. The drug concentrations were measured before and after a 12-h incubation by liquid-chromatography-coupled mass spectrometry (LC–MS)
Conditions: thomasclavelia ramosa, 2 µM

| SMILES | Bacterial Biotransformation |
| --- | --- |
| COc1ccccc1OCCNCC(O)COc1cccc2[nH]c3ccccc3c12 (stereo not given) [CARVEDILOL] | Compound metabolized |
| CCOc1ccc2nc(S(N)(=O)=O)sc2c1 [ETHOXZOLAMIDE] | Compound metabolized |
| CCOC(=O)[C@H](CCc1ccccc1)N[C@H]1CCc2ccccc2N(CC(=O)O)C1=O [BENAZEPRIL] | Compound NOT metabolized |

Experiment: The drug is tested on Enterococcus faecalis strain: V583 for biotransformation. The drug concentrations were measured before and after a 12-h incubation by liquid-chromatography-coupled mass spectrometry (LC–MS)
Conditions: 2 µM

| SMILES | Bacterial Biotransformation |
| --- | --- |
| COc1ccccc1OCCNCC(O)COc1cccc2[nH]c3ccccc3c12 (stereo not given) [CARVEDILOL] | Compound NOT metabolized |
| CCOc1ccc2nc(S(N)(=O)=O)sc2c1 [ETHOXZOLAMIDE] | Compound metabolized |
| CCOC(=O)[C@H](CCc1ccccc1)N[C@H]1CCc2ccccc2N(CC(=O)O)C1=O [BENAZEPRIL] | Compound metabolized |

Experiment: The drug is tested on Eubacterium rectale strain: ATCC33656 for biotransformation. The drug concentrations were measured before and after a 12-h incubation by liquid-chromatography-coupled mass spectrometry (LC–MS)
Conditions: agathobacter rectalis, 2 µM

| SMILES | Bacterial Biotransformation |
| --- | --- |
| COc1ccccc1OCCNCC(O)COc1cccc2[nH]c3ccccc3c12 (stereo not given) [CARVEDILOL] | Compound NOT metabolized |
| CCOc1ccc2nc(S(N)(=O)=O)sc2c1 [ETHOXZOLAMIDE] | Compound metabolized |
| CCOC(=O)[C@H](CCc1ccccc1)N[C@H]1CCc2ccccc2N(CC(=O)O)C1=O [BENAZEPRIL] | Compound NOT metabolized |

Experiment: The drug is tested on Ruminococcus gnavus strain: ATCC29149 for biotransformation. The drug concentrations were measured before and after a 12-h incubation by liquid-chromatography-coupled mass spectrometry (LC–MS)
Conditions: mediterraneibacter gnavus, 2 µM

| SMILES | Bacterial Biotransformation |
| --- | --- |
| COc1ccccc1OCCNCC(O)COc1cccc2[nH]c3ccccc3c12 (stereo not given) [CARVEDILOL] | Compound NOT metabolized |
| CCOc1ccc2nc(S(N)(=O)=O)sc2c1 [ETHOXZOLAMIDE] | Compound metabolized |
| CCOC(=O)[C@H](CCc1ccccc1)N[C@H]1CCc2ccccc2N(CC(=O)O)C1=O [BENAZEPRIL] | Compound NOT metabolized |

Experiment: The drug is tested on Ruminococcus torques strain: ATCC27756 for biotransformation. The drug concentrations were measured before and after a 12-h incubation by liquid-chromatography-coupled mass spectrometry (LC–MS)
Type: ADME
Parameters: dose 2 uM, timepoint 0 vs 12 hours
Conditions: 2 µM

| SMILES | Bacterial Biotransformation |
| --- | --- |
| COc1ccccc1OCCNCC(O)COc1cccc2[nH]c3ccccc3c12 (stereo not given) [CARVEDILOL] | Compound NOT metabolized |
| CCOc1ccc2nc(S(N)(=O)=O)sc2c1 [ETHOXZOLAMIDE] | Compound metabolized |
| CCOC(=O)[C@H](CCc1ccccc1)N[C@H]1CCc2ccccc2N(CC(=O)O)C1=O [BENAZEPRIL] | Compound NOT metabolized |

Experiment: The drug is tested on Edwardsiella tarda strain: ATCC23685 for biotransformation. The drug concentrations were measured before and after a 12-h incubation by liquid-chromatography-coupled mass spectrometry (LC–MS)
Conditions: 2 µM

| SMILES | Bacterial Biotransformation |
| --- | --- |
| COc1ccccc1OCCNCC(O)COc1cccc2[nH]c3ccccc3c12 (stereo not given) [CARVEDILOL] | Compound NOT metabolized |
| CCOc1ccc2nc(S(N)(=O)=O)sc2c1 [ETHOXZOLAMIDE] | Compound metabolized |
| CCOC(=O)[C@H](CCc1ccccc1)N[C@H]1CCc2ccccc2N(CC(=O)O)C1=O [BENAZEPRIL] | Compound NOT metabolized |

Experiment: The drug is tested on Providencia stuartii strain: ATCC25827 for biotransformation. The drug concentrations were measured before and after a 12-h incubation by liquid-chromatography-coupled mass spectrometry (LC–MS)
Conditions: 2 µM

| SMILES | Bacterial Biotransformation |
| --- | --- |
| COc1ccccc1OCCNCC(O)COc1cccc2[nH]c3ccccc3c12 (stereo not given) [CARVEDILOL] | Compound metabolized |
| CCOc1ccc2nc(S(N)(=O)=O)sc2c1 [ETHOXZOLAMIDE] | Compound metabolized |
| CCOC(=O)[C@H](CCc1ccccc1)N[C@H]1CCc2ccccc2N(CC(=O)O)C1=O [BENAZEPRIL] | Compound NOT metabolized |

Conditions: bifidobacterium adolescentis, 12 h, 2 µM
Description: The drug is tested on Bifidobacterium adolescentis strain: ATCC 15703 for biotransformation. The drug concentrations were measured before and after a 12-h incubation by liquid-chromatography-coupled mass spectrometry (LC–MS)

| SMILES | Bacterial Biotransformation |
| --- | --- |
| COc1ccccc1OCCNCC(O)COc1cccc2[nH]c3ccccc3c12 (stereo not given) [CARVEDILOL] | Compound NOT metabolized |
| CCOc1ccc2nc(S(N)(=O)=O)sc2c1 [ETHOXZOLAMIDE] | Compound metabolized |
| CCOC(=O)[C@H](CCc1ccccc1)N[C@H]1CCc2ccccc2N(CC(=O)O)C1=O [BENAZEPRIL] | Compound NOT metabolized |

Conditions: bacteroides fragilis, 12 h, 2 µM
Description: The drug is tested on Bacteroides fragilis strain: NCTC 9343 for biotransformation. The drug concentrations were measured before and after a 12-h incubation by liquid-chromatography-coupled mass spectrometry (LC–MS)

| SMILES | Bacterial Biotransformation |
| --- | --- |
| COc1ccccc1OCCNCC(O)COc1cccc2[nH]c3ccccc3c12 (stereo not given) [CARVEDILOL] | Compound metabolized |
| CCOc1ccc2nc(S(N)(=O)=O)sc2c1 [ETHOXZOLAMIDE] | Compound metabolized |
| CCOC(=O)[C@H](CCc1ccccc1)N[C@H]1CCc2ccccc2N(CC(=O)O)C1=O [BENAZEPRIL] | Compound NOT metabolized |

Conditions: parabacteroides johnsonii, 12 h, 2 µM
Description: The drug is tested on Parabacteroides johnsonii strain: DSM18315 for biotransformation. The drug concentrations were measured before and after a 12-h incubation by liquid-chromatography-coupled mass spectrometry (LC–MS)

| SMILES | Bacterial Biotransformation |
| --- | --- |
| COc1ccccc1OCCNCC(O)COc1cccc2[nH]c3ccccc3c12 (stereo not given) [CARVEDILOL] | Compound metabolized |
| CCOc1ccc2nc(S(N)(=O)=O)sc2c1 [ETHOXZOLAMIDE] | Compound metabolized |
| CCOC(=O)[C@H](CCc1ccccc1)N[C@H]1CCc2ccccc2N(CC(=O)O)C1=O [BENAZEPRIL] | Compound metabolized |

Conditions: limosilactobacillus reuteri cf48-3a, 12 h, 2 µM
Description: The drug is tested on Lactobacillus reuteri CF48-3A strain: BEI HM-102 for biotransformation. The drug concentrations were measured before and after a 12-h incubation by liquid-chromatography-coupled mass spectrometry (LC–MS)

| SMILES | Bacterial Biotransformation |
| --- | --- |
| COc1ccccc1OCCNCC(O)COc1cccc2[nH]c3ccccc3c12 (stereo not given) [CARVEDILOL] | Compound NOT metabolized |
| CCOc1ccc2nc(S(N)(=O)=O)sc2c1 [ETHOXZOLAMIDE] | Compound metabolized |
| CCOC(=O)[C@H](CCc1ccccc1)N[C@H]1CCc2ccccc2N(CC(=O)O)C1=O [BENAZEPRIL] | Compound NOT metabolized |
